From ChEMBL document CHEMBL3576818, “Structure-Activity Relationships of (+)-Naltrexone-Inspired Toll-like Receptor 4 (TLR4) Antagonists” (J Med Chem, 2015)

Legend:
[1] = molecular target: T1, Toll-like receptor 4 (Mus musculus, UniProt Q9QUK6)
T1 sequence (Q9QUK6 whole entry): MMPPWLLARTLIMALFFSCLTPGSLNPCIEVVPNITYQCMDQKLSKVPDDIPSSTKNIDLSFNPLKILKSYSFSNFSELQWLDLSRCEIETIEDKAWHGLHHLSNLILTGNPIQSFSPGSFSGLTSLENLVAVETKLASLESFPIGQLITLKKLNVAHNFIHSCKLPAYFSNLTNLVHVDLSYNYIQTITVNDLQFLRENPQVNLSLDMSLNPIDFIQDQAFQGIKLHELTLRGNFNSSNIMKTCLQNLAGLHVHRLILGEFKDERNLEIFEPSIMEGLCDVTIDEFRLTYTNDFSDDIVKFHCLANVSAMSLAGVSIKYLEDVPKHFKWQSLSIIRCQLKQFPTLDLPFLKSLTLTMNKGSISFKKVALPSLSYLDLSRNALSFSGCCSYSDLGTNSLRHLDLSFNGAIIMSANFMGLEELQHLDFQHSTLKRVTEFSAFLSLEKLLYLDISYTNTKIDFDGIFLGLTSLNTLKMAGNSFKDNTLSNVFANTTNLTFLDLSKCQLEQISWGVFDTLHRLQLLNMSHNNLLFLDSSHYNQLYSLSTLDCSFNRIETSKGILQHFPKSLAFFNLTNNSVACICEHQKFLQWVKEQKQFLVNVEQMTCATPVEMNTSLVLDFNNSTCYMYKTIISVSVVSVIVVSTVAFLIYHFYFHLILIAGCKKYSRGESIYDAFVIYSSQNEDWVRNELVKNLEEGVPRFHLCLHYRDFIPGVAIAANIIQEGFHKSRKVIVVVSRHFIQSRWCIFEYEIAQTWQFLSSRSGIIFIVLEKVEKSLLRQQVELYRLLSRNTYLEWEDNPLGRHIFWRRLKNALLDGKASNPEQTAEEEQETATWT
Description: Antagonist activity against TLR4 in mouse BV2 cells assessed as inhibition of LPS-induced nitric oxide production incubated for 24 hrs by 2,3-diaminonaphthalene dye based assay

[2] = Cytotoxicity against mouse BV2 cells assessed as reduction in viability by crystal violet staining method; conditions: BV-2

| Structure (SMILES) | IC50 [1] | IC50 [2] |
| --- | --- | --- |
| O=C1CC[C@]2(O)[C@@H]3Cc4ccc(O)c5c4[C@]2(CCN3CCCCCc2ccccc2)[C@@H]1O5 | 1.7 µM | 26.8 µM |
| O=C1CC[C@]2(O)[C@@H]3Cc4ccc(O)c5c4[C@]2(CCN3CC2CC2)[C@@H]1O5 | 106 µM | > 400 µM |
| O=C1CC[C@]2(O)CN(CC3CC3)CC[C@]23c2cccc(O)c2O[C@H]13 | 76.2 µM | > 400 µM |
| CCCCCCN1CC[C@@]23CCCC[C@]2(O)[C@@H]1Cc1ccc(O)cc13 | 5.2 µM |  |
| Oc1ccc2c3c1O[C@@H]1[C@@H](O)CC[C@]4(O)[C@H](C2)N(CC2CC2)CC[C@@]314 | 243 µM | > 400 µM |
| Oc1ccc2c3c1O[C@@H]1[C@H](O)CC[C@]4(O)[C@H](C2)N(CC2CC2)CC[C@@]314 | 144 µM | > 400 µM |
| O=C1CC[C@]2(O)[C@@H]3Cc4ccc(O)cc4[C@]2(CCN3CC2CC2)C1 | 118 µM | > 400 µM |
| Oc1ccc2c(c1)[C@]13CCCC[C@]1(O)[C@H](C2)N(CC1CC1)CC3 | 48.9 µM | 366 µM |
| CCCCCCN1CC[C@@]23C=CCC[C@]2(O)[C@@H]1Cc1ccc(O)cc13 | 22.5 µM | 155 µM |
| CCCCN1CC[C@@]23c4c5ccc(O)c4O[C@@H]2C(=O)CC[C@]3(O)[C@@H]1C5 | 24.8 µM | > 200 µM |
| CCCCCN1CC[C@@]23c4c5ccc(O)c4O[C@@H]2C(=O)CC[C@]3(O)[C@@H]1C5 | 7.5 µM | > 200 µM |
| CCCCCCN1CC[C@@]23c4c5ccc(O)c4O[C@@H]2C(=O)CC[C@]3(O)[C@@H]1C5 | 6.7 µM | 121 µM |
| CCCCCCCN1CC[C@@]23c4c5ccc(O)c4O[C@@H]2C(=O)CC[C@]3(O)[C@@H]1C5 | 3 µM | 68.5 µM |
| CCCCCCCCN1CC[C@@]23c4c5ccc(O)c4O[C@@H]2C(=O)CC[C@]3(O)[C@@H]1C5 | 1.7 µM |  |
| O=C1CC[C@]2(O)[C@@H]3Cc4ccc(O)c5c4[C@]2(CCN3CCCCc2ccccc2)[C@@H]1O5 | 1.2 µM | 37.1 µM |
| O=C1CC[C@]2(O)[C@@H]3Cc4ccc(O)c5c4[C@]2(CCN3CCCc2ccccc2)[C@@H]1O5 | 1.4 µM | 69.3 µM |
| O=C1CC[C@]2(O)[C@@H]3Cc4ccc(O)c5c4[C@]2(CCN3CCc2ccccc2)[C@@H]1O5 | 1.4 µM | 141 µM |
| O=C1CC[C@]2(O)[C@@H]3Cc4ccc(O)c5c4[C@]2(CCN3CCc2ccccc2F)[C@@H]1O5 | 1.8 µM | 65.7 µM |
| COc1ccc2c3c1O[C@@H]1C(=O)CC[C@]4(O)C(C2)N(CCc2ccccc2)CC[C@@]314 | 5.7 µM |  |
